Experiments:
[1] = tested on: PGE2 release in J774 macrophages; assay: PGE2 release from LPS/IFNγ-stimulated J774 macrophages (radioimmunoassay); format: cell-based, murine; details: 30 min pre-treatment, 24 hour incubation; for activity at 1 µM / activity at 10 µM: Mus musculus, J774, 24 h; for activity at 1 µM: read-out: Effects on PGE2 release in J774 macrophages at 1 μM as a % of LPS/IFNγ control, mean; for activity at 10 µM: read-out: Effects on PGE2 release in J774 macrophages at l0 μM as a % of LPS/IFNγ control, mean
[2] = target: proteins in rat lung membranes; assay: Competitive binding assay with [3H]-CP2117 on rat lung membranes (RLM); details: given as Log IC50 (negative values); displacement of 10 nM [3H]-CP2117, overnight at 4° C.; ND- not detected

Log IC50 RLM binding [2]	SMILES	activity at 1 µM [1]	activity at 10 µM ([1]; l0 μM)	Effects on PGE2 release in J774 macrophages at 1 μM as a % of LPS/IFNγ control, mean [1]	Effects on PGE2 release in J774 macrophages at l0 μM as a % of LPS/IFNγ control, mean ([1]; l0 μM)
−6.18	COc1cc(C2CCCCC2)c(C(C)=NOCc2ccc([N+](=O)[O-])cc2)cc1O [CP30424, 2′-Cyclohexyl-5′-hydroxy-4′-methoxyacetophenone O-4-Nitrobenzyl Oxime]	83%			
−6.91	COc1cc2c(cc1O)/C(=N/OCc1ccc3nonc3c1)CCC2 [Compound 2-TB-146, (E)-7-Hydroxy-6-methoxy-3,4-dihydronaphthalen-1(2H)-one O-benzo[c][1,2,5]oxadiazol-5-ylmethyl oxime]				
−5.81	COc1cc([C@H]2CC[C@@](C)(CO)CC2)c(C(C)=NOCc2ccc3nonc3c2)cc1O [CP30453, 2′-(4-Hydroxymethyl-4-methyl)cyclohexyl-5′-hydroxy-4′-methoxyacetophenone O-(benzofurazan-5-yl)methyl Oxime]				
−5.6	COc1ccc(C(=NOCc2ccc([N+](=O)[O-])cc2)[C@H]2CC[C@@H](CCO)CC2)cc1O [CP30348-2, cis-(3-Hydroxy-4-methoxyphenyl)-4-(2-hydroxyethyl)cyclohexylmethanone O-4-Nitrobenzyl Oxime]			85 % of LPS/IFNγ control	111 % of LPS/IFNγ control
−6.43	COc1cc2c(cc1O)/C(=N/OCc1ccc3nonc3c1)CC2 [Compound 2-TB-147, (E)-6-Hydroxy-5-methoxy-2,3-dihydro-1H-inden-1-one O-benzo[c][1,2,5]oxadiazol-5-ylmethyl oxime]				
−6.9	COc1ccc(/C(C)=N/OCc2ccc(F)cc2)cc1O [CP30266, (E)-3′-Hydroxy-4′-methoxyacetophenone O-4-Fluorobenzyl Oxime]				
−6.96	COc1ccc(/C(C)=N/OCc2cccc(C)c2)cc1O [CP30264, (E)-3′-Hydroxy-4′-methoxyacetophenone O-3-Methylbenzyl Oxime]	77%	74%		
	COc1cc2c(cc1OC)/C(=N/OCc1ccc([N+](=O)[O-])cc1)CC2 [TB54, (E)-5,6-Dimethoxy-2,3-dihydroinden-1-one O-4-Nitrobenzyl Oxime]	95%	78%		
−5.28	C/C(=N\OCc1ccc2nonc2c1)c1ccc(F)c(O)c1 [CP9135, 4′-Fluoro-3′-hydroxyacetophenone-O—[(benzo[c][1,2,5]oxadiazol-5-yl)methyl]oxime]	66%	90%		
−6.26	COc1cc(-c2ccc(Cl)cc2)c(/C(C)=N/OCc2ccc([N+](=O)[O-])cc2)cc1O [CP30340, (E)-2′-(4-Chlorophenyl)-5′-hydroxy-4′-methoxyacetophenone O-4-Nitrobenzyl Oxime]		51%		
−6.02	COc1ccc(C(=NOCc2ccc([N+](=O)[O-])cc2)[C@H]2CC[C@@H](CCO)CC2)cc1O [CP30348-1, cis-(3-Hydroxy-4-methoxyphenyl)-4-(2-hydroxyethyl)cyclohexylmethanone O-4-Nitrobenzyl Oxime]		91%	124 % of LPS/IFNγ control	
−5.9	C/C(=N\OCc1ccc2nonc2c1)c1ccc(O)c(F)c1 [CP9128, 3′-Fluoro-4′-hydroxyacetophenone-O-[(benzo[c][1,2,5]oxadiazol-5-yl)methyl]oxime]	62%	65%		
−6.41	COc1ccc(/C(C)=N/OCc2cccc(OC(F)(F)F)c2)cc1O [CP30282, (E)-3′-Hydroxy-4′-methoxyacetophenone O-3-Trifluoromethoxybenzyl Oxime]				
−6.2	COc1cc(-c2ccccc2)c(/C(C)=N/OCc2ccc([N+](=O)[O-])cc2)cc1O [CP30329, (E)-5′-Hydroxy-4′-methoxy-2′-phenylacetophenone O-4-Nitrobenzyl Oxime]		55%		
−6.48	COc1cc2c(cc1O)/C(=N/OCc1ccc([N+](=O)[O-])cc1)CCC2 [TB76, (E)-7-Hydroxy-6-methoxy-3,4-dihydronaphthalen-1(2H)-one O-4-Nitrobenzyl Oxime]				
−6.16	COc1cc2c(cc1O)/C(=N/OCc1ccc([N+](=O)[O-])cc1)CC2 [TB81, (E)-6-Hydroxy-5-methoxy-2,3-dihydroinden-1-one O-4-Nitrobenzyl Oxime]				
	COc1cc(-c2ccc(N)cc2)c(/C(C)=N/OCc2ccc([N+](=O)[O-])cc2)cc1O [CP30381, (E)-2′-(4-Aminophenyl)-5′-hydroxy-4′-methoxyacetophenone O-4-Nitrobenzyl Oxime]	62%			
−5.43	COc1cc(-c2ccc(F)cc2)c(/C(C)=N/OCc2ccc([N+](=O)[O-])cc2)cc1O [CP30344, (E)-2′-(4-Fluorophenyl)-5′-hydroxy-4′-methoxyacetophenone O-4-Nitrobenzyl Oxime]	111%	94%		
−6.5	COc1ccc(/C(C)=N/OCc2ccccc2F)cc1O [CP30280, (E)-3′-Hydroxy-4′-methoxyacetophenone O-2-Fluorobenzyl Oxime]				
−6.14	COc1cc(-c2ccc(OC)c(OC)c2)c(/C(C)=N/OCc2ccc([N+](=O)[O-])cc2)cc1O [CP30331, (E)-5′-Hydroxy-4′-methoxy-2′-(3,4-dimethoxyphenyl)acetophenone O-4-Nitrobenzyl Oxime]		28%		
−6.88	COc1ccc(/C(C)=N/OCc2cccc(F)c2)cc1O [CP30262, (E)-3′-Hydroxy-4′-methoxyacetophenone O-3-Fluorobenzyl Oxime]				
−6.23	COc1cc(-c2ccc(OC(F)(F)F)cc2)c(/C(C)=N/OCc2ccc([N+](=O)[O-])cc2)cc1O [CP30343, (E)-2′-(4-Trifluoromethoxyphenyl)-5′-hydroxy-4′-methoxyacetophenone O-4-Nitrobenzyl Oxime]	65%	51%		
−5.75	COc1ccc(C(=NOCc2ccc([N+](=O)[O-])cc2)[C@H]2CC[C@H](CCO)CC2)cc1O [CP30347, trans-(3-Hydroxy-4-methoxyphenyl)-4-(2-hydroxyethyl)cyclohexylmethanone O-4-Nitrobenzyl Oxime]	102%	68%		
−6.16	COc1ccc(/C(C)=N/OCc2ccc(F)c(F)c2)cc1O [CP30281, (E)-3′-Hydroxy-4′-methoxyacetophenone O-3,4-Difluorobenzyl Oxime]				

SMILES	Log IC50 RLM binding [2]	activity at 1 µM [1]	activity at 10 µM ([1]; l0 μM)	Effects on PGE2 release in J774 macrophages at 1 μM as a % of LPS/IFNγ control, mean [1]	Effects on PGE2 release in J774 macrophages at l0 μM as a % of LPS/IFNγ control, mean ([1]; l0 μM)
COc1cc(-c2cccc(NC(=O)OC(C)(C)C)c2)c(/C(C)=N/OCc2ccc([N+](=O)[O-])cc2)cc1O [CP30339, (E)-2′-(3-tert-Butoxycarbonylaminophenyl)-5′-hydroxy-4′-methoxyacetophenone O-4-Nitrobenzyl Oxime]	−6.64		36%		
COc1ccc(-c2cc(OC)c(O)cc2/C(C)=N/OCc2ccc([N+](=O)[O-])cc2)cc1 [CP30338, (E)-5′-Hydroxy-4′-methoxy-2′-(4-methoxyphenyl)acetophenone O-4-Nitrobenzyl Oxime]	−6.88				

Source: patent publication US8536157B2, “Non-steroidal compounds” (The University of Melbourne, priority 2007, dated 2013)
